Reference: PubChem BioAssay (NCI)
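Protocol summary: plate cells (96-well), add compound at 5 concentrations, incubate 48 h, interpolate endpoints linearly. TGI: total growth inhibition.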

Tests used:
Assay in all cases: inhibition of tumour cell growth, NCI panel, 48 h
[1] = test system: 786-0 renal
[2] = test system: A498 renal
[3] = test system: A549 NSCLC
[4] = test system: ACHN renal
[5] = test system: BT-549 breast
[6] = test system: CAKI-1 renal
[7] = test system: CCRF-CEM leukemia
[8] = test system: COLO 205 colon
[9] = test system: DU-145 prostate
[10] = test system: EKVX NSCLC
[11] = test system: HCC-2998 colon
[12] = test system: HCT-116 colon
[13] = test system: HCT-15 colon
[14] = test system: HL-60(TB) leukemia
[15] = test system: HOP-62 NSCLC
[16] = test system: HOP-92 NSCLC
[17] = test system: HS 578T breast
[18] = test system: HT29 colon
[19] = test system: IGROV1 ovarian
[20] = test system: K-562 leukemia
[21] = test system: KM12 colon
[22] = test system: LOX IMVI melanoma
[23] = test system: M14 melanoma
[24] = test system: MALME-3M melanoma
[25] = test system: MCF7 breast
[26] = test system: MDA-MB-231 breast
[27] = test system: MDA-MB-435
[28] = test system: MDA-N
[29] = test system: MOLT-4 leukemia
[30] = test system: NCI-H23 lung
[31] = test system: NCI-H460 lung
[32] = test system: NCI-H522 lung
[33] = test system: NCI/ADR-RES ovarian
[34] = test system: OVCAR-3 ovarian
[35] = test system: OVCAR-4 ovarian
[36] = test system: OVCAR-5 ovarian
[37] = test system: OVCAR-8 ovarian
[38] = test system: PC-3 prostate
[39] = test system: RPMI-8226 leukemia
[40] = test system: RXF 393 renal
[41] = test system: SF-268 CNS
[42] = test system: SF-295 CNS
[43] = test system: SF-539 CNS
[44] = test system: SK-MEL-2 melanoma
[45] = test system: SK-MEL-28 melanoma
[46] = test system: SK-MEL-5 melanoma
[47] = test system: SK-OV-3 ovarian
[48] = test system: SN12C renal
[49] = test system: SNB-19 CNS
[50] = test system: SNB-75 CNS
[51] = test system: SW-620 colon
[52] = test system: T-47D breast
[53] = test system: TK-10 renal
[54] = test system: U251 CNS
[55] = test system: UACC-257 melanoma
[56] = test system: UACC-62 melanoma
[57] = test system: UO-31 renal
[58] = test system: NCI-H226 lung

For `O=C(/C=N/O)Nc1cc(Cl)c(Cl)cc1Cl`, the TGI [1] was greater than 100 µM, the TGI [2] was 55.5 µM and the TGI [3] was greater than 100 µM. The TGI [4] was greater than 100 µM, the TGI [5] was 89.3 µM and the TGI [6] was 79.8 µM. The TGI [7] was 91.9 µM, the TGI [8] was 87.4 µM and the TGI [9] was greater than 100 µM. It also gave a TGI [10] of 96.9 µM, a TGI [11] greater than 100 µM and a TGI [12] of 90.1 µM. For the same molecule, the TGI [13] was greater than 100 µM, the TGI [14] was 53.8 µM and the TGI [15] was greater than 100 µM. The TGI [16] was greater than 100 µM, the TGI [17] was 85.5 µM and the TGI [18] was greater than 100 µM. It also gave a TGI [19] greater than 100 µM, a TGI [20] greater than 100 µM and a TGI [21] of 84.3 µM. For the same molecule, the TGI [22] was greater than 100 µM, the TGI [23] was greater than 100 µM and the TGI [24] was greater than 100 µM. It also gave a TGI [25] greater than 100 µM, a TGI [26] of 60 µM and a TGI [27] of 67 µM. For the same molecule, the TGI [28] was greater than 100 µM, the TGI [29] was 47.9 µM and the TGI [30] was 86.6 µM. It also gave a TGI [31] greater than 100 µM, a TGI [32] of 67.8 µM and a TGI [33] greater than 100 µM. For the same molecule, the TGI [34] was 79.5 µM, the TGI [35] was greater than 100 µM and the TGI [36] was greater than 100 µM. For the same molecule, the TGI [37] was greater than 100 µM, the TGI [38] was greater than 100 µM and the TGI [39] was 88.8 µM. The TGI [40] was 95.3 µM, the TGI [41] was greater than 100 µM and the TGI [42] was 87.6 µM. It also gave a TGI [43] greater than 100 µM, a TGI [44] of 54.2 µM and a TGI [45] greater than 100 µM. For the same molecule, the TGI [46] was 33 µM, the TGI [47] was greater than 100 µM and the TGI [48] was 94.3 µM. For the same molecule, the TGI [49] was greater than 100 µM, the TGI [50] was 66.6 µM and the TGI [51] was greater than 100 µM. For the same molecule, the TGI [52] was 95.5 µM, the TGI [53] was greater than 100 µM and the TGI [54] was greater than 100 µM. For the same molecule, the TGI [55] was 87.4 µM, the TGI [56] was 76.3 µM and the TGI [57] was greater than 100 µM.

Molecule `COc1ccc(/C=C2\CCC(C)/C(=C\c3ccc(OC)c(OC)c3)C2=O)cc1OC` (configuration not stated) has a TGI [1] of 19.4 µM, a TGI [2] of 25.3 µM and a TGI [4] of 16.7 µM. For the same molecule, the TGI [5] was 20.3 µM, the TGI [6] was 21.6 µM and the TGI [7] was 7.6 µM. It also gave a TGI [8] of 54.2 µM, a TGI [9] of 21 µM and a TGI [10] of 10.2 µM. It also gave a TGI [12] of 14.3 µM, a TGI [13] of 21.2 µM and a TGI [14] of 5.93 µM. It also gave a TGI [17] of 88.3 µM, a TGI [18] of 52.9 µM and a TGI [19] of 14.6 µM. It also gave a TGI [20] of 67.3 µM, a TGI [21] of 7.04 µM and a TGI [22] of 19.2 µM. It also gave a TGI [23] of 31.2 µM, a TGI [24] of 22 µM and a TGI [25] of 22.3 µM. It also gave a TGI [26] of 60.8 µM, a TGI [27] greater than 100 µM and a TGI [28] greater than 100 µM. It also gave a TGI [29] of 11.7 µM, a TGI [58] of 38.8 µM and a TGI [30] of 15.6 µM. It also gave a TGI [33] of 32.5 µM, a TGI [34] greater than 100 µM and a TGI [36] of 26.6 µM. It also gave a TGI [37] of 39.8 µM, a TGI [38] of 23.4 µM and a TGI [39] of 8.01 µM. For the same molecule, the TGI [40] was 24.2 µM, the TGI [41] was 45.1 µM and the TGI [42] was 23 µM. The TGI [43] was 13.8 µM, the TGI [44] was 25.3 µM and the TGI [45] was 48.1 µM. The TGI [46] was 17.5 µM, the TGI [47] was 42.3 µM and the TGI [48] was 36.5 µM. The TGI [49] was 39.3 µM, the TGI [51] was greater than 100 µM and the TGI [52] was 28.2 µM. For the same molecule, the TGI [53] was 7.41 µM, the TGI [54] was greater than 100 µM and the TGI [55] was 21.5 µM. It also gave a TGI [56] of 23.1 µM and a TGI [57] of 23.3 µM.
